The source made the active and inactive calls. No cut-off for these calls is given here.
Legend:
[1] = molecular target: T1, Protein deacetylase HDAC6 (Homo sapiens, UniProt Q9UBN7); experiment: Inhibition of HDAC6 derived from human HeLa cell extract using Ac-Leu-Gly-Lys (Ac)-AMC as substrate by fluorescence based assay; assay type: cell-free
T1 sequence (Q9UBN7 whole entry): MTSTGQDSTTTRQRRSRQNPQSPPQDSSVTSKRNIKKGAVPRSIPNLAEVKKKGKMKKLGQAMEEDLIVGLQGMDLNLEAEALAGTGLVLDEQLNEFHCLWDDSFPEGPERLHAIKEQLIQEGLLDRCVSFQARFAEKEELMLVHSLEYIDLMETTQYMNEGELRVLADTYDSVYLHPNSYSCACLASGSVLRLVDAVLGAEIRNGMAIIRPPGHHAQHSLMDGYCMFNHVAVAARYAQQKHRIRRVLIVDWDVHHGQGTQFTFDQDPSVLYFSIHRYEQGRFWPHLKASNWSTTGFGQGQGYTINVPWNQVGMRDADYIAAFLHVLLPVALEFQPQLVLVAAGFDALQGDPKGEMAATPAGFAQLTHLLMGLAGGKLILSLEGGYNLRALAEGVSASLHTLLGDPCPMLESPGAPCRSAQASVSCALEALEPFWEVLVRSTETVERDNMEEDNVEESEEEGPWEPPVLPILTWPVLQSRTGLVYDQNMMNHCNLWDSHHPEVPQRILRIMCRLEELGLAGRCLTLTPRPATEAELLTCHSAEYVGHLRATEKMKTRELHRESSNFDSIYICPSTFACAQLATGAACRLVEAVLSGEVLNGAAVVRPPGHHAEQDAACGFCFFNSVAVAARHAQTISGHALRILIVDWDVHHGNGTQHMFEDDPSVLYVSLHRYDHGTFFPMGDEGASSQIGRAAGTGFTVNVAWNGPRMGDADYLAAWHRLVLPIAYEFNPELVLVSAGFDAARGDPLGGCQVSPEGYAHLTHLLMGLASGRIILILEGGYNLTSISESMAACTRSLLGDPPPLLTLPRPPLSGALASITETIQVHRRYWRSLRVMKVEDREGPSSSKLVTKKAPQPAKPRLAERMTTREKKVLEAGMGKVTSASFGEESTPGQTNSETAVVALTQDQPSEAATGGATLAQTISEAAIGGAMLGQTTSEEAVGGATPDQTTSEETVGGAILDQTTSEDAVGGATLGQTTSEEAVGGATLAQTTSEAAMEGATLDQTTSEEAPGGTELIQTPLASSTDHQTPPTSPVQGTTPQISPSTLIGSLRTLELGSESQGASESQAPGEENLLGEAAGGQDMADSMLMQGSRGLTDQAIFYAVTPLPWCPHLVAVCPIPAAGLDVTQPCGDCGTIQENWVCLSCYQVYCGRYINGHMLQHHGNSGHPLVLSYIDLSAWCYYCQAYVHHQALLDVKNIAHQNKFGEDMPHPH

Histone deacetylase 3 = Histone deacetylase 3 (Homo sapiens, UniProt O15379); experiment: Inhibition of HDAC3 in human K562 cells assessed as increase in Acetyl-histone H3 level at 0.01 to 1 uM incubated for 24 hrs by Western blot analysis; assay type: cell-based; conditions: dose 0.01-1 µM
Histone deacetylase 3, sequence (O15379 whole entry): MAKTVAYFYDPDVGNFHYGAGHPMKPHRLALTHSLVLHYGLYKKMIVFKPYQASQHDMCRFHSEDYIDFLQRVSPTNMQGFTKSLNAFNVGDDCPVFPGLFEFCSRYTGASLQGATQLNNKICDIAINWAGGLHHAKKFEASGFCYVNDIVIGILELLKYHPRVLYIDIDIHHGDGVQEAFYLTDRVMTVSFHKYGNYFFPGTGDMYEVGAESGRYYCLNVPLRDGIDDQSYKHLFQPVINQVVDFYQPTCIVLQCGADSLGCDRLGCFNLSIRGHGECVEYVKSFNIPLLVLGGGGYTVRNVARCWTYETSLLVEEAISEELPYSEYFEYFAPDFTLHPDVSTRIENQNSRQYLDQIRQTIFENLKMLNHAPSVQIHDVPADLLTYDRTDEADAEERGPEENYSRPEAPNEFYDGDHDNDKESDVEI

K562 [2] = experiment: Induction of cell cycle arrest at G1 phase in human K562 cells at 8 nM incubated for 48 hrs by PI staining based flow cytometry (reference value: 62.08 +/- 0.40 %); assay type: functional
Tubulin (Homo sapiens) = Tubulin (Homo sapiens) (UniProt P68371+Q9H4B7+P0DPH7+P68366+Q13509+Q71U36+P04350+Q3ZCM7+P07437+P68363+Q9BQE3+Q6PEY2+Q13885+Q9BVA1+Q9BUF5); experiment: Inhibition of tubulin polymerization in human K562 cells assessed as disruption of microtubule network at 2 to 8 nM by immunofluorescence based analysis; assay type: cell-based; conditions: dose 2-8 nM
K562 [3] = experiment: Inhibition of mitochondrial membrane potential in human K562 cells assessed as green fluorescence intensity at 4 nM incubated for 48 hrs by JC-1 staining based flow cytometry (reference value: 6.63 +/- 0.27 %); assay type: functional
K562 [4] = experiment: Induction of apoptosis in human K562 cells assessed as late apoptotic cells at 8 nM incubated for 48 hrs by Annexin V/PI staining based flow cytometry (reference value: 3.37 +/- 0.21 %); assay type: functional
K562 [5] = experiment: Induction of ROS generation in human K562 cells assessed as DCF-positive cells at 4 nM incubated for 48 hrs by DCF-DA probe based flow cytometry (reference value: 3.87 %); assay type: functional
K562 [6] = experiment: Inhibition of mitochondrial membrane potential in human K562 cells assessed as red fluorescence intensity at 2 nM incubated for 48 hrs by JC-1 staining based flow cytometry (reference value: 93.36 +/- 0.21 %); assay type: functional
K562 [7] = experiment: Induction of apoptosis in human K562 cells assessed as early apoptotic cells at 4 nM incubated for 48 hrs by Annexin V/PI staining based flow cytometry (reference value: 1.55 +/- 0.21 %); assay type: functional
K562 [8] = experiment: Induction of cell cycle arrest at S phase in human K562 cells at 8 nM incubated for 48 hrs by PI staining based flow cytometry (reference value: 22.56 +/- 0.47 %); assay type: functional
[9] = Toxicity in ICR mouse allografted with mouse H22 cells assessed as toxic sign in kidney at 10 to 20 mg/kg, iv qd for 17 days consecutively by H and E staining based analysis; assay type: organism-based; conditions: in vivo, dose 10-20 mg/kg, time 17 day
K562 [10] = experiment: Induction of apoptosis in human K562 cells assessed as early apoptotic cells at 8 nM incubated for 48 hrs by Annexin V/PI staining based flow cytometry (reference value: 1.55 +/- 0.21 %); assay type: functional
H22 = experiment: Antitumor activity against mouse H22 cells allografted in ICR mouse assessed as decrease in tumor microvessel density at 20 mg/kg, iv qd for 17 days consecutively by IHC analysis; assay type: functional, organism-based; conditions: time 17.0 day
A549 = experiment: cells; conditions: Homo sapiens, A549, 72 h
Description: Antiproliferative activity against human A549 cells incubated for 72 hrs by MTT assay

K562 [11] = experiment: Induction of cell cycle arrest at G1 phase in human K562 cells at 4 nM incubated for 48 hrs by PI staining based flow cytometry (reference value: 62.08 +/- 0.40 %); assay type: functional
K562 [12] = experiment: Induction of cell cycle arrest at G2 phase in human K562 cells at 2 nM incubated for 48 hrs by PI staining based flow cytometry (Rvb =15.36 +/- 0.46 %); assay type: functional
Histone deacetylase 1 = Histone deacetylase 1 (Homo sapiens, UniProt Q13547); experiment: Inhibition of HDAC1 derived from human HeLa cell extract using Ac-Leu-Gly-Lys (Ac)-AMC as substrate by fluorescence based assay; assay type: cell-free
Histone deacetylase 1, sequence (Q13547 whole entry): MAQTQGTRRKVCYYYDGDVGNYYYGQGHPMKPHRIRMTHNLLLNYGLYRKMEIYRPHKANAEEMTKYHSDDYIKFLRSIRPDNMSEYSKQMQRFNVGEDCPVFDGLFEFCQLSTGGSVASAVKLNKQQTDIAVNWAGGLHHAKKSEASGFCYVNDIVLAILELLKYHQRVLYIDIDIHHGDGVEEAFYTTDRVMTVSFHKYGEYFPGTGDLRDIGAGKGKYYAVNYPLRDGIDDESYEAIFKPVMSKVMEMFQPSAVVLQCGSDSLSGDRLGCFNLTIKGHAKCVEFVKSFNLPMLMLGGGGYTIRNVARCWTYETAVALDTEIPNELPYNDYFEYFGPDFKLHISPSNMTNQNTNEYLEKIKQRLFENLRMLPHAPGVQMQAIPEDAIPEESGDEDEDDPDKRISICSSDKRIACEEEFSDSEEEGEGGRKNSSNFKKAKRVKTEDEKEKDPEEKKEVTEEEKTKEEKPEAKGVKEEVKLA

K562 [13] = experiment: Induction of apoptosis in human K562 cells assessed as early apoptotic cells at 2 nM incubated for 48 hrs by Annexin V/PI staining based flow cytometry (reference value: 1.55 +/- 0.21 %); assay type: functional
K562 [14] = experiment: Induction of cell cycle arrest at G2 phase in human K562 cells at 4 nM incubated for 48 hrs by PI staining based flow cytometry (Rvb =15.36 +/- 0.46 %); assay type: functional

C=C(c1ccc(OC)c(OC(F)C(=O)NO)c1)c1cc(C)nc2ccccc12 (centres undefined)
IC50 [1]: 459 nM | inhibition (Histone deacetylase 3): Active | Activity (K562 [2]): 41.72% | inhibition (Tubulin (Homo sapiens)): Active | Flu intensity (K562 [3]): 31.75% | Activity (K562 [4]): 25.59% | Activity (K562 [5]): 29.72% | Flu intensity (K562 [6]): 82.36% | Activity (K562 [7]): 24.51% | Activity (K562 [8]): 30.41% | Activity [9]: Non-Toxic | Activity (K562 [10]): 18.11% | Activity (H22): Active | IC50 (A549): 17 nM | Activity (K562 [11]): 49.35% | Activity (K562 [12]): 20.48% | IC50 (Histone deacetylase 1): 403 nM | Activity (K562 [13]): 14.52% | Activity (K562 [14]): 23.38%

Reference: ChEMBL document CHEMBL5620374, “Synthesis and bioevaluation of novel stilbene-based derivatives as tubulin/HDAC dual-target inhibitors with potent antitumor activities in vitro and in vivo” (Eur J Med Chem, 2023)
